According to US20060040980A1, “Ionophores as cancer chemotherapeutic agents” (priority 2004, published 2006):
Entries after “also recorded” stand apart in the source; their conditions may differ. Read-outs that look alike come from different tables or passages of the source. Values belong to the compound of their own block, whether it stands above or below them.

Tests used:
[1] = test system: tumor cells; assay: Modulation of CQ-mediated cell killing by anti-oxidants and zinc chelators; assay type: cell-based; settings: added to CQ-treated cells
Source text: Inventors then studied the effects of the addition of zinc chelators. Since Ca^++ has a lower affinity for EDTA than Zn^++, the addition of […] it.

[2] = test system: Raji cells (a human B-cell Burkitt lymphoma line); assay: MTS cell viability assay, Raji; assay type: cell-based; settings: for IC50: Homo sapiens, Raji (B-cell), MTS assay, n = 3, read-out: IC50 (μM) towards human tumor cell lines; for Effect of added copper, zinc or iron on CQ's cytotoxic effects / Interaction of clioquinol and DHA in killing cells (isobologram analysis): Raji cells; for Effect of added copper, zinc or iron on CQ's cytotoxic effects: ZnCl2, CuCl2, FeCl2 premixed with 5 μM clioquinol, 72 h; for Interaction of clioquinol and DHA in killing cells (isobologram analysis): ratio of IC50s
Method: (§1) Cell viability was determined with the MTS assay. IC50 was calculated using nonlinear regression analysis (Prism 3.0). […] Data (n=3) are presented as means±S.E.M.
(§2) The CellTiter 96® Aqueous ONE Solution (Promega) was used to assess cellular viability via reduction of (3-(4,5-dimethylthiazol-2-yl)-5-(3carboxymethoxyphenyl)-2-(4-sulfophenyl)-2H-tetrazolium (MTS). An ELISA-based apoptosis assay kit was from Roche, and an anti-poly (ADP-ribose) polymerase (PARP) monoclonal antibody was from BIOMOL Research Laboratories Inc. Nude mice were from Animal Technology Limited. All other reagents were analytic grade.
(§3) DHL-4 cells were provided by Dr. Linda Boxer (Stanford University), A2780 cells by Dr. Stephen Howell (University of California, San Diego), SiHa cells by Dr. Doris Benbrook (University of Oklahoma). All other cells were obtained from the ATCC. Cells were routinely grown in a […], in an environment containing 5% CO2, and passed every three days. Cell viability was analyzed using the MTS assay. […] The MTS assay was performed using the protocol provided by the manufacturer. In short, 20 μL of MTS solution was added to each well, and cells were incubated at 37° C. for 1-2 h. The optical density (490 nm) of each well was then determined.
(§4) IC50 values were calculated with nonlinear regression analysis using Graphpad Prism 3.0 (Graphpad Software, Inc.).
(§5) The cells studied included human B-cell lymphoma lines (DHL-4, Raji), breast (MCF-7, MDA-MB231), ovarian (A2780), cervical (SiHa), bladder (T24), and pancreatic (Mpanc-96) cancer cells.
as §1
Inventors reasoned that the cytotoxic effects of a chelator would be overcome by an excess of the chelated metal. Inventors added increasing concentrations of copper, zinc or iron to cells treated with CQ. […] Cell viability was expressed as a percentage of untreated cells.

[3] = test system: DHL-4 (B-cell); assay: MTS cell viability assay, DHL-4; assay type: cell-based; settings: Homo sapiens, read-out: IC50 (μM) of clioquinol towards human tumor cell lines, 72 h, n = 3
Source text: as §2, §3, §4, §5

[4] = test system: A2780 (ovarian); assay: MTS cell viability assay, A2780; assay type: cell-based, human
Source text: as §2, §3, §4, §5

[5] = test system: MDA-MB-231 (breast); assay: MTS cell viability assay, MDA-MB-231; assay type: cell-based; settings: Homo sapiens, read-out: IC50 (μM) of clioquinol towards human tumor cell lines, 72 h, n = 3
Source text: as §2, §3, §4, §5

[6] = test system: T24 (Bladder); assay: MTS cell viability assay, T24; assay type: cell-based; settings: Homo sapiens, read-out: IC50 (μM) of clioquinol towards human tumor cell lines, 72 h, n = 3
Source text: as §2, §3, §4, §5

[7] = test system: M-panc-96 (pancreas); assay: MTS cell viability assay, M-panc-96; assay type: cell-based; settings: Homo sapiens, MPANC96, read-out: IC50 (μM) of clioquinol towards human tumor cell lines, 72 h, n = 3
Source text: as §2, §3, §4, §5

[8] = test system: MCF-7 (breast); assay: MTS cell viability assay, MCF-7; assay type: cell-based; settings: Homo sapiens, MCF7, read-out: IC50 (μM) of clioquinol towards human tumor cell lines, 72 h, n = 3
Source text: as §2, §3, §4, §5

[9] = test system: SiHa (cervical); assay: MTS cell viability assay, SiHa; assay type: cell-based; settings: Homo sapiens, read-out: IC50 (μM) of clioquinol towards human tumor cell lines, 72 h, n = 3
Source text: as §2, §3, §4, §5

[10] = test system: human cancer cell lines; assay: Viability of eight human cancer cell lines (overall statement); assay type: cell-based
Source text: as §2, §3, §4, §5

[11] = test system: tumor cells; assay: Lipid peroxidation (thiobarbituric acid reactive substances) in CQ-treated tumor cells; assay type: cell-based; settings: CQ treatment of tumor cells
[12] = test system: A2780 cells; assay: Cellular zinc level measurement with FluoZin-3; assay type: cell-based, human; settings: A2780, 30 μM clioquinol, 1 h, increasing zinc
[13] = test system: Raji cells; assay: Apoptosis ELISA (cytoplasmic histone-associated DNA fragments) and PARP/caspase-3 Western blot; assay type: cell-based, human; settings: 24 h, PARP cleavage
Method: Western blot analysis was performed as previously described (57-59). Briefly, cells were lysed in a lysis buffer containing 50 MM Tris, pH 7.4, 50 mM NaCl, 0.5% NP-40, 50 mM NaF, 1 mM Na3VO4, 1 mM phenylmethylsulfonyl fluoride, 25 μg/ml leupeptin, and 25 μg/ml aprotinin. The lysates were centrifuged at 15,004×g for 15 min and the supernatants were collected for protein concentration determination, SDS-PAGE, and western blot analysis with specific antibodies, as described.
An ELISA-based kit (Roche Diagnostics Coup., Ind.) was used to quantitatively measure cytoplasmic histone-associated DNA fragments (mononucleosomes and oligonucleosomes), a measure of apoptosis, according to the manufacturer's instructions.
Cellular extracts were analyzed using an ELISA-based assay (Roche Diagnostics Corp., Indianapolis, Ind.) that quantifies release into the cytoplasm of histone-associated DNA fragments (mononucleosomes and oligonucleosomes), a measure of apoptosis. In addition, the lysates were subjected to SDS-PAGE followed by Western blotting using an anti-poly (ADP-ribose) polymerase (PARP) monoclonal antibody (clone C-2-10) to detect PARP cleavage, a sign of caspase-dependent apoptosis.
Cell lysates were prepared and apoptosis determined using an ELISA that quantified cytoplasmic DNA-histone complexes. […]

[14] = test system: A2780 (a human ovarian cancer line) xenograft; assay: A2780 xenograft in nude mice; assay type: in vivo; settings: 28 mg/kg, 5 days a week
Method: Control animals were given Intralipid, without Cloquinol. […] Animals' weights were also measured 3 times a week.
In a separate experiment, nude mice were injected with the ovarian cancer cell line, A2780 and treated similarly. Mice were killed when the tumor reached 10% of their body weight.
Tumor size was calculated and expressed as […] .

[15] = test system: immortalized endothelial cell line (EAhy.926); assay: Endothelial cell tube formation assay on Matrigel; assay type: cell-based; settings: EAhy.926 on Matrigel
Method: An immortalized endothelial cell line (EAhy.926) was plated on Matrigel at a density of 15,000 per well in the absence or presence of the drugs indicated overnight at 37° C. Branch formation was used as a measure of tube formation. Each value was determined by averaging the number of branches per field (250×) in 3 representative fields. The final bFGF concentration was 5 ng/mL.

[16] = test system: Raji (a human B-cell lymphoma line) xenograft
[17] = cited from earlier work
[18] = target: albumin (Homo sapiens, UniProt P02768); settings: read-out: Affinity of binding to albumin; cited from earlier work
albumin, sequence (P02768 25-609): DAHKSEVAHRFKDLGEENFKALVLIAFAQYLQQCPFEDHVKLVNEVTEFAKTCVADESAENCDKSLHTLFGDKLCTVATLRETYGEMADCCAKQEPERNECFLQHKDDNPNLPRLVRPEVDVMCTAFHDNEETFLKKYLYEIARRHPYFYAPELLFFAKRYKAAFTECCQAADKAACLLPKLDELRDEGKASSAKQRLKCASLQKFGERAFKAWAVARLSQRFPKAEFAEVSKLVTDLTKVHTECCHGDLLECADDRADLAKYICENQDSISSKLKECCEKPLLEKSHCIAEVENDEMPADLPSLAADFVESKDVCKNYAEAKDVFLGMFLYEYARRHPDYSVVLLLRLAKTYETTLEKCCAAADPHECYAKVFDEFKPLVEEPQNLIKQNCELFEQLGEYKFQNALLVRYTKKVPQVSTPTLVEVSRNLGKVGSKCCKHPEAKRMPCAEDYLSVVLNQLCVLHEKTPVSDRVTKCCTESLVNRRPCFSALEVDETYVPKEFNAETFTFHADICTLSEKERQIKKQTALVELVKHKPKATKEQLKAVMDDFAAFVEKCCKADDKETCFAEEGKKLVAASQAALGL

[19] = test system: mouse model of Alzheimer's disease; settings: cited from earlier work
[20] = test system: patients with Alzheimer's disease; settings: cited from earlier work
[21] = test system: mouse brains; settings: cited from earlier work
[22] = test system: animals; settings: high doses; cited from earlier work
[23] = target: purified bovine erythrocyte SOD 1 (Bos taurus, UniProt P00442); assay: SOD1 activity, xanthine oxidase/cytochrome C method, purified enzyme; settings: purified bovine erythrocyte SOD 1, in vitro
purified bovine erythrocyte SOD 1, sequence (P00442 whole entry): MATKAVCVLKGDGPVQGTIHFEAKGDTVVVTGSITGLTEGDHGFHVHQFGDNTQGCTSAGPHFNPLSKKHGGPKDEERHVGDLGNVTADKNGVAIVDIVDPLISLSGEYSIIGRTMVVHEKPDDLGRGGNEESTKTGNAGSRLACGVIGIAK

[24] = oral, 750 mg a day, Alzheimer's trial

Compound: O=C([O-])CN(CCN(CC(=O)[O-])CC(=O)[O-])CC(=O)[O-].[Ca+2].[Na+].[Na+] [CaEDTA]
Effect of zinc chelators on CQ-mediated cell killing [1]: decrease in CQ-mediated cell killing

IC50 [2]: 85 µM
Compound: CC/C=C\C/C=C\C/C=C\C/C=C\C/C=C\C/C=C\CCC(=O)O [DHA, docosahexaenoic acid]

Compound: Cc1c(C)c2c(c(C)c1O)CCC(C)(C(=O)O)O2 (stereo not drawn) [Trolox]
Protection of cells against CQ by anti-oxidants [1]: do not protect

Compound: O=C(O)CN(CCN(CC(=O)O)CC(=O)O)CC(=O)O.[Zn] [ZnEDTA]
Effect of zinc chelators on CQ-mediated cell killing [1]: not

Compound: Oc1c(I)cc(Cl)c2cccnc12 [clioquinol, 5-chloro-7-iodo-8-hydroxyquinoline]
IC50 [3]: 6.7 µM
IC50 [2]: 12.4 µM
Effect of added copper, zinc or iron on CQ's cytotoxic effects [2]: potentiation
Effect of added copper, zinc or iron on CQ's cytotoxic effects ([2]; listed as CQ): potentiated
Interaction of clioquinol and DHA in killing cells (isobologram analysis) [2]: potentiate DHA; also recorded: synergy
Interaction of clioquinol and DHA in killing cells (isobologram analysis) ([2]; listed as CQ): synergism
Exposure time sufficient for full cytotoxicity ([4]; A2780 cells, time-course studies): 8 h
IC50 ([4]; Homo sapiens, read-out: IC50 (μM) of clioquinol towards human tumor cell lines, A2780 (ovarian), 72 h, n = 3): 14.2 µM
IC50 [5]: 19.9 µM
IC50 [6]: 20 µM
IC50 [7]: 23.6 µM
IC50 [8]: 29.7 µM
IC50 [9]: 38.8 µM
IC50 ([10]; eight human cancer cell lines, 72 h, read-out: IC50s, range over all cell lines tested): 10 to 40 µM
IC50s in killing human cancer cells (in words) ([10]; human cancer cells): low micromolar range
Lipid peroxidation (thiobarbituric acid reactive substances) [11]: does not lead to increased lipid peroxidation
Zinc ionophore activity (fluorescent zinc indicator) [12]: is a zinc ionophore
Zinc ionophore activity (fluorescent zinc indicator) ([12]; listed as CQ): is indeed an ionophore
Induction of apoptosis [13]: induces apoptosis
Survival of treated mice [14]: prolonged survival
Tumor growth [14]: inhibited tumor growth
Anti-angiogenic effect (cell survival and tube branches) [15]: anti-angiogenic effect
Endothelial cell tube formation ([15]; bFGF 5 ng/mL, overnight): inhibited in a dose dependent manner
Tumor growth ([16]; Raji xenograft, 28 mg/kg ip, 5 days a week): inhibition of tumor growth
Signs of toxicity ([16]; mouse, in vivo, ip, 28 mg/kg): No animals exhibited signs of toxicity
Absorbed from the skin ([17]; man, in 12 hours): 40%
Excreted in the urine after absorption from the GI tract ([17]; man, in 72 hours): 25%
Serum half-life ([17]; man): about 12 hours
Trough blood levels [17, 24]: about 25 μM
Trough, steady-state blood levels [17, 24]: 7.6 µg/mL
Trough blood levels ([17]; oral, 750 mg a day, Alzheimer's trial, listed as CQ): 25 µM
Kd [18]: 0.01 µM
Dose administered safely ([19]; mice): 30 mg/kg/day
Sedimentable amyloid in the brains ([19]; mouse model of Alzheimer's disease): decrease
Neurotoxicity in patients ([20]; Australia, 36 patients, 250, 500, 750 mg a day over nine months with vitamin B12): No neurotoxicity
Toxicity in patients ([20]; Sweden, 10 or 80 mg a day for 21 days): without experiencing toxicity
Accumulation of vitamin B12 in the brain [21]: decreased
Neurotoxicity in animal studies [22]: can induce neurotoxicity
Effect on purified SOD 1 [23]: inhibition

Compound: [O-][n+]1ccccc1S [pyrithione, 2-mercaptopyridine 1-oxide]
Anti-angiogenic effect (cell survival and tube branches) [15]: anti-angiogenic effect

Compound: vitamin E
Protection of cells against CQ by anti-oxidants [1]: do not protect
